In ChEMBL document CHEMBL4765295, “Synthesis, pharmacological profile and 2D-QSAR studies of curcumin-amino acid conjugates as potential drug candidates” (Eur J Med Chem, 2020):
In brackets after ≈: the same amount, converted by molar mass. Several values for one entry are separate records, joined by “and”; a condition that tells them apart may be missing. Equal values may be shown once.

Assays:
[1] = system: Rattus norvegicus; assay: Antiinflammatory activity in Wistar rat model of carrageenan-induced paw edema assessed as reduction in thickness of paw edema at 10 mg/kg, ip pretreated for 1 hr followed by carrageenan challenge and measured after 4 hrs (reference value: 1.40 +/-0.10 mm); assay type: functional; conditions: time 5 hrs
[2] = system: Splenocyte; assay: Immunomodulatory activity in Swiss albino mouse splenocytes assessed as cell viability at 10 uM by measuring stimulation index incubated for 72 hrs in presence of mitogenic stimulus phytohaemagglutinin by MTT assay (reference value: 1.00 +/- 0.24); assay type: functional
[3] = system: Streptococcus pyogenes; assay: Antibacterial activity against Streptococcus pyogenes ATCC 19615 incubated for 18 hrs by agar dilution method; assay type: functional
[4] = system: Splenocyte; assay: Immunomodulatory activity in Swiss albino mouse splenocytes assessed as cell viability at 10 uM by measuring inhibition of stimulation index incubated for 72 hrs in presence of mitogenic stimulus phytohaemagglutinin by MTT assay relative to indomethacin; assay type: functional; conditions: read-out: Activity
[5] = system: Rattus norvegicus; assay: Anti-inflammatory activity in Wistar rat assessed as inhibition of carrageenan-induced paw edema at 10 mg/kg, ip pretreated for 1 hr followed by carrageenan challenge and measured after 24 hr relative to control (reference value: 0.00 +/-0.3 %); assay type: functional; conditions: time 25 hrs
[6] = system: Rattus norvegicus; assay: Anti-inflammatory activity in Wistar rat assessed as inhibition of carrageenan-induced paw edema at 10 mg/kg, ip pretreated for 1 hr followed by carrageenan challenge and measured after 3 hr relative to control (reference value: 0.00 +/-0.1 %); assay type: functional; conditions: time 4 hrs
[7] = system: Peritoneal macrophage; assay: Antiinflammatory activity in […] mouse Peritoneal macrophages assessed as reduction in LPS-induced NO production by measuring reduction in stimulation index at 10 uM preincubated for 1 hr followed by LPS stimulation measured after 24 hrs by Griess method (reference value: 27.31 +/- 2.56 uM); assay type: functional; conditions: time 25 hrs
[8] = system: Rattus norvegicus; assay: Anti-inflammatory activity in Wistar rat assessed as inhibition of carrageenan-induced paw edema at 10 mg/kg, ip pretreated for 1 hr followed by carrageenan challenge and measured after 1 hr relative to control (reference value: 0.00 +/-0.02 %); assay type: functional; conditions: time 2 hrs
[9] = system: Rattus norvegicus; assay: Antiinflammatory activity in Wistar rat model of carrageenan-induced paw edema assessed as reduction in thickness of paw edema at 10 mg/kg, ip pretreated for 1 hr followed by carrageenan challenge and measured after 2 hrs (reference value: 2.06 +/-0.09 mm); assay type: functional; conditions: time 3 hrs
[10] = system: Rattus norvegicus; assay: Anti-inflammatory activity in Wistar rat assessed as inhibition of carrageenan-induced paw edema at 10 mg/kg, ip pretreated for 1 hr followed by carrageenan challenge and measured after 4 hr relative to indomethacin; assay type: functional; conditions: time 5 hrs
[11] = system: Pseudomonas aeruginosa; assay: Antibacterial activity against Pseudomonas aeruginosa ATCC 27853 incubated for 18 hrs by agar dilution assay; assay type: functional
[12] = system: Rattus norvegicus; assay: Antiinflammatory activity in Wistar rat model of carrageenan-induced paw edema assessed as reduction in thickness of paw edema at 10 mg/kg, ip pretreated for 1 hr followed by carrageenan challenge and measured after 1 hr (reference value: 2.41 +/-0.05 mm); assay type: functional; conditions: time 1 hr after carrageenan
[13] = system: Rattus norvegicus; assay: Anti-inflammatory activity in Wistar rat assessed as inhibition of carrageenan-induced paw edema at 10 mg/kg, ip pretreated for 1 hr followed by carrageenan challenge and measured after 2 hr relative to control (reference value: 0.00 +/-0.03 %); assay type: functional; conditions: time 3 hrs
[14] = system: Salmonella typhimurium; assay: Antibacterial activity against Salmonella typhimurium ATCC 19430 incubated for 18 hrs by agar dilution assay; assay type: functional, Salmonella enterica subsp. enterica serovar Typhimurium; conditions: Salmonella enterica
[15] = system: Rattus norvegicus; assay: Antiinflammatory activity in Wistar rat model of carrageenan-induced paw edema assessed as reduction in thickness of paw edema at 10 mg/kg, ip pretreated for 1 hr followed by carrageenan challenge and measured after 3 hrs (reference value: 1.79 +/-0.07 mm); assay type: functional; conditions: time 4 hrs
[16] = system: Rattus norvegicus; assay: Antiinflammatory activity in Wistar rat model of carrageenan-induced paw edema assessed as reduction in thickness of paw edema at 10 mg/kg, ip pretreated for 1 hr followed by carrageenan challenge and measured after 24 hrs (reference value: 0.83 +/-0.08 mm); assay type: functional; conditions: time 25 hrs
[17] = system: Rattus norvegicus; assay: Anti-inflammatory activity in Wistar rat assessed as inhibition of carrageenan-induced paw edema at 10 mg/kg, ip pretreated for 1 hr followed by carrageenan challenge and measured after 4 hr relative to control (reference value: 0.00 +/-0.4 %); assay type: functional; conditions: time 5 hrs
[18] = system: Candida albicans; assay: Antifungal activity against Candida albicans incubated for 18 to 24 hrs by CLSI method; assay type: functional; conditions: time 18-24 hrs
[19] = system: Peritoneal macrophage; assay: Antiinflammatory activity in […] mouse Peritoneal macrophages assessed as inhibition of LPS-induced NO production at 10 uM preincubated for 1 hr followed by LPS stimulation measured after 24 hrs by Griess method relative to control (reference value: 0.0 %); assay type: functional; design: scale not given: the % may be the effect or the level left; conditions: time 25 hrs
[20] = system: Staphylococcus aureus; assay: Antibacterial activity against Staphylococcus aureus ATCC 25923 incubated for 18 hrs by agar dilution method; assay type: functional
[21] = system: Mus musculus; assay: Analgesic activity in albino mouse assessed as forepaw licking/jumping latency time at 10 mg/kg, ip measured after 30 mins by hot plate test (reference value: 5.02 +/- 0.09 sec); assay type: functional; conditions: 0.5 h
[22] = system: Mus musculus; assay: Analgesic activity in albino mouse assessed as protection at 10 mg/kg, ip measured after 90 mins by hot plate test (reference value: 0 %); assay type: functional; conditions: 1.5 h
[23] = Ulcerogenic activity in fasted albino mouse assessed as average severity of ulcers in gastric mucosa at 10 mg/kg, po for 3 days (reference value: 0); assay type: toxicity, organism-based; conditions: in vivo, 72 h, time 3 day
[24] = system: Mus musculus; assay: Analgesic activity in albino mouse assessed protection against acetic acid-induced abdominal writhing at 10 mg/kg, ip pretreated for 1 hr followed by acetic acid challenge and measured starting 5 mins post acetic acid challenge for 10 mins relative to control (reference value: 0 %); assay type: functional; conditions: time 75 min, 1.25 h
[25] = Ulcerogenic activity in fasted albino mouse assessed as average number of ulcers in gastric mucosa at 10 mg/kg, po for 3 days (reference value: 0); assay type: toxicity, organism-based; conditions: in vivo, 72 h, time 3 day
[26] = system: Mus musculus; assay: Analgesic activity in albino mouse assessed as protection at 10 mg/kg, ip measured after 60 mins by hot plate test (reference value: 0 %); assay type: functional; conditions: 1 h
[27] = system: Mus musculus; assay: Analgesic activity in albino mouse assessed as protection at 10 mg/kg, ip measured after 120 mins by hot plate test (reference value: 0 %); assay type: functional; conditions: 2 h
[28] = Ulcerogenic activity in fasted albino mouse assessed as incidence of gastric ulceration at 10 mg/kg, po for 3 days (reference value: 0 %); assay type: toxicity, organism-based; conditions: in vivo, 72 h, time 3 day
[29] = system: Mus musculus; assay: Analgesic activity in albino mouse assessed as forepaw licking/jumping latency time at 10 mg/kg, ip measured after 120 mins by hot plate test (reference value: 2.62 +/- 0.06 sec); assay type: functional; conditions: 2 h
[30] = system: Mus musculus; assay: Analgesic activity in albino mouse assessed as protection at 10 mg/kg, ip measured after 120 mins by hot plate test relative to indomethacin; assay type: functional; conditions: 2 h
[31] = system: Mus musculus; assay: Analgesic activity in albino mouse assessed protection against acetic acid-induced abdominal writhing at 10 mg/kg, ip pretreated for 1 hr followed by acetic acid challenge and measured starting 5 mins post acetic acid challenge for 10 mins relative to indomethacin; assay type: functional; conditions: time 75 min, 1.25 h
[32] = system: Mus musculus; assay: Analgesic activity in albino mouse assessed as protection at 10 mg/kg, ip measured after 30 mins by hot plate test (reference value: 0 %); assay type: functional; conditions: 0.5 h
[33] = system: Mus musculus; assay: Analgesic activity in albino mouse assessed reduction in acetic acid-induced abdominal writhing by measuring writing reflex at 10 mg/kg, ip pretreated for 1 hr followed by acetic acid challenge and measured starting 5 mins post acetic acid challenge for 10 mins (reference value: 42.4 +/- 1.02); assay type: functional; conditions: time 75 min, 1.25 h
[34] = Ulcerogenic activity in fasted albino mouse assessed as ulcer index in gastric mucosa at 10 mg/kg, po for 3 days (reference value: 0); assay type: toxicity, organism-based; conditions: in vivo, 72 h, time 3 day
[35] = system: Mus musculus; assay: Analgesic activity in albino mouse assessed as forepaw licking/jumping latency time at 10 mg/kg, ip measured after 60 mins by hot plate test (reference value: 3.42 +/- 0.03 sec); assay type: functional; conditions: 1 h
[36] = system: Mus musculus; assay: Analgesic activity in albino mouse assessed as forepaw licking/jumping latency time at 10 mg/kg, ip measured after 90 mins by hot plate test (reference value: 2.72 +/- 0.01 sec); assay type: functional; conditions: 1.5 h

COc1cc(/C=C/C(=O)/C=C(O)/C=C/c2ccc(OC(=O)[C@H](CCC(N)=O)NC(=O)OC(C)(C)C)c(OC)c2)ccc1OC(=O)[C@H](CCC(N)=O)NC(=O)OC(C)(C)C
Activity [1]: 0.83 mm
Activity_index [2]: 2.14
MIC [3]: 0.25 µg/mL and 0.303 µM
viability at 10 µM [4]: 56.6%
inhibition in vivo at 10 mg/kg [5]: 57%
inhibition in vivo at 10 mg/kg [6]: 32%
Activity [7]: 21.22 µM
inhibition in vivo at 10 mg/kg [8]: 10%
Activity [9]: 1.73 mm
inhibition in vivo at 10 mg/kg [10]: 47%
MIC [11]: 1 µg/mL and 1.21 µM
Activity [12]: 2.16 mm
inhibition in vivo at 10 mg/kg [13]: 16%
MIC [14]: 0.125 µg/mL and 0.152 µM
Activity [15]: 1.22 mm
Activity [16]: 0.36 mm
inhibition in vivo at 10 mg/kg [17]: 41%
MIC [18]: 2 µg/mL and 2.42 µM
Activity [19]: 22.29%
MIC [20]: 0.125 µg/mL and 0.152 µM

COc1cc(/C=C/C(=O)CC(=O)/C=C/c2ccc(O)c(OC)c2)ccc1O [CURCUMIN]
Time [21]: 5.04 s
Activity [1]: 0.21 mm
Activity_index [2]: 1.52
MIC [3]: 0.125 µg/mL and 0.339 µM
viability at 10 µM [4]: 79.5%
inhibition in vivo at 10 mg/kg [5]: 36%
Activity [22]: 66.9%
inhibition in vivo at 10 mg/kg [6]: 75%
Activity [23]: 0.33
Activity [7]: 17.18 µM
Activity [24]: 52.1%
Activity [25]: 0.33
Activity [26]: 35.1%
inhibition in vivo at 10 mg/kg [8]: 12%
Activity [9]: 0.82 mm
inhibition in vivo at 10 mg/kg [10]: 98%
MIC [11]: 0.125 µg/mL and 0.339 µM
Activity [12]: 2.12 mm
Activity [27]: 32.1%
Activity [28]: 3.33%
inhibition in vivo at 10 mg/kg [13]: 60%
MIC [14]: 0.125 µg/mL and 0.339 µM
Activity [15]: 0.45 mm
Time [29]: 3.46 s
Activity [16]: 0.53 mm
inhibition in vivo at 10 mg/kg [17]: 85%
Activity [30]: 76.4%
Activity [31]: 84.6%
MIC [18]: 0.125 µg/mL and 0.339 µM
Activity [19]: 37.11%
MIC [20]: 0.339 µM (≈ 0.125 µg/mL)
Activity [32]: 0.4%
Activity [33]: 20.3
UI [34]: 3.99
Time [35]: 4.62 s
Time [36]: 4.54 s

CC(C)Cc1ccc(C(C)C(=O)O)cc1 (centres undefined) [IBUPROFEN]
Time [21]: 5.4 s
Activity [1]: 0.29 mm
inhibition in vivo at 10 mg/kg [5]: 14%
Activity [22]: 51.5%
inhibition in vivo at 10 mg/kg [6]: 65%
Activity [23]: 0.67
Activity [24]: 42.9%
Activity [25]: 0.33
Activity [26]: 49.7%
inhibition in vivo at 10 mg/kg [8]: 20%
Activity [9]: 0.82 mm
inhibition in vivo at 10 mg/kg [10]: 91%
Activity [12]: 1.93 mm
Activity [27]: 32.8%
Activity [28]: 3.33%
inhibition in vivo at 10 mg/kg [13]: 60%
Activity [15]: 0.63 mm
Time [29]: 3.48 s
Activity [16]: 0.71 mm
inhibition in vivo at 10 mg/kg [17]: 79%
Activity [30]: 78.1%
Activity [31]: 69.6%
Activity [32]: 7.6%
Activity [33]: 24.2
Time [35]: 5.12 s
Time [36]: 4.12 s

COc1ccc2c(c1)c(CC(=O)O)c(C)n2C(=O)c1ccc(Cl)cc1 [INDOMETHACIN]
Time [21]: 6.3 s
Activity [1]: 0.18 mm
inhibition in vivo at 10 mg/kg [5]: 86%
Activity [22]: 41.2%
inhibition in vivo at 10 mg/kg [6]: 67%
Activity [23]: 1.67
Activity [24]: 61.6%
Activity [25]: 2
Activity [26]: 53.8%
inhibition in vivo at 10 mg/kg [8]: 53%
Activity [9]: 0.85 mm
inhibition in vivo at 10 mg/kg [10]: 100%
Activity [12]: 1.11 mm
Activity [27]: 42%
Activity [28]: 10%
inhibition in vivo at 10 mg/kg [13]: 59%
Activity [15]: 0.59 mm
Time [29]: 3.72 s
Activity [16]: 0.12 mm
inhibition in vivo at 10 mg/kg [17]: 87%
Activity [30]: 100%
Activity [31]: 100%
Activity [32]: 25.5%
Activity [33]: 16.3
UI [34]: 13.67
Time [35]: 5.26 s
Time [36]: 3.84 s
